One assay addresses T1, MMP-2 (Homo sapiens, UniProt P08253).
T1 construct: purchased R&D Systems 902-MP
T1 sequence (P08253 110-660): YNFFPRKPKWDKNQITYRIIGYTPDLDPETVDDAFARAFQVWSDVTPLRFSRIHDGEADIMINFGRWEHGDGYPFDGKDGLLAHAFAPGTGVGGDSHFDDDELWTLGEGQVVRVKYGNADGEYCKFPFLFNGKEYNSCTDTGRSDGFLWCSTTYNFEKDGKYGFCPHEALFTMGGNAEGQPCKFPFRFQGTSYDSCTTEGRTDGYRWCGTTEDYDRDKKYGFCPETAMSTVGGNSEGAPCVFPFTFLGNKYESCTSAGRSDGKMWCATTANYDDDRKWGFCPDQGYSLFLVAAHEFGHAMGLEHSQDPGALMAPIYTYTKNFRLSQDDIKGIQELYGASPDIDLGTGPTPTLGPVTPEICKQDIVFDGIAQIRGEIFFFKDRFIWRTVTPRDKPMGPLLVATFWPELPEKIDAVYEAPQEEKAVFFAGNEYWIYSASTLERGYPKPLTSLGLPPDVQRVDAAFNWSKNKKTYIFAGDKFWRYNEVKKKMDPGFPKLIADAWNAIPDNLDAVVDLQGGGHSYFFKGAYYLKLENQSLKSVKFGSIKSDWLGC
Put plainly: In vitro MMP-2 inhibition test. It counts as biochemical. An excerpt: (§1) The MMP-mediated amidolytic cleavage of a suitable peptide substrate leads to an increase in fluorescent light here too. The signal intensity of the fluorescent light is directly proportional to the enzyme activity. The active concentration of a test compound at which half the enzyme is inhibited (50% signal intensity of the fluorescent light) is reported as the IC50 value.
(§2) Recombinant MMP-2 (from R&D Systems, 902-MP) is chemically activated in accordance with the manufacturer's instructions using APMA. 1 μl of the test compound to be analysed (as a solution in DMSO, suitable concentrations, for example, 1 nM to 30 μM) is pipetted into 24 μl of activated enzyme (final concentration, for example, 2 nM) in reaction buffer (50 mM Tris/HCl pH 7.5, 10 mM CaCl2, 150 mM NaCl, 0.05% Brij®-35) in a white 384-hole microtiter plate (MTP). The enzymatic reaction is started by adding the intramolecularly quenched Mca-Pro-Leu-Gly-Leu-Dpa(Dnp)-Ala-Arg-NH2 substrate (final concentration, for example, 10 μM; R&D Systems, ES-001), so as to result in a total test volume of 50 μl. The course of the MMP-2 reaction is measured by measuring the fluorescence intensity (excitation 320 nm, emission 410 nm) over a suitable period of time (for example over 120 min at a temperature of 32° C.).

In a further assay the target is T2, MMP-9 (Homo sapiens, UniProt P14780).
T2 construct: purchased R&D Systems 911-MP
Briefly: In vitro MMP-9 inhibition test. It counts as biochemical.
Excerpt: as §1
as §2, with “Recombinant MMP-9” for “Recombinant MMP-2”, “Systems, 911-MP)” for “Systems, 902-MP)”, “example, 0.1” for “example, 2”, “the MMP-9” for “the MMP-2”

T2 sequence (P14780 107-707 limits assumed): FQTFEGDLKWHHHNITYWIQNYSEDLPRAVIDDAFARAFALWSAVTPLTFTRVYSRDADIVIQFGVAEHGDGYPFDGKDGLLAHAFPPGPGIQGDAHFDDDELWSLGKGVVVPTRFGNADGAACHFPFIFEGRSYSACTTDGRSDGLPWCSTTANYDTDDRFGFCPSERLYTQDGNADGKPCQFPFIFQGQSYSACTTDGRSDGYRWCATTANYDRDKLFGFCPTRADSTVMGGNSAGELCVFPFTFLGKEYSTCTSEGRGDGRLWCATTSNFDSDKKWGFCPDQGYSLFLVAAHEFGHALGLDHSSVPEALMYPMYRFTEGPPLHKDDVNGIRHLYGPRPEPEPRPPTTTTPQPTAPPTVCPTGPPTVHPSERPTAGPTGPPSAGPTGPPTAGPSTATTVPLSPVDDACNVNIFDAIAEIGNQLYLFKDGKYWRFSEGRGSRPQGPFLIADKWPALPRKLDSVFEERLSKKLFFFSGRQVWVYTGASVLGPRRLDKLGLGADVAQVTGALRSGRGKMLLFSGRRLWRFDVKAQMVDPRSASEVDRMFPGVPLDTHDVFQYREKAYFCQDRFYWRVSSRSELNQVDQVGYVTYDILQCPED

With `O=C(O)[C@@H]1[C@@H](Cn2nnc3ccc(C(F)(F)F)cc3c2=O)CC[C@H]1C(=O)c1ccc(OCc2cccc(N3CCOC3=O)c2)cc1` (single isomer, unassigned) [Example 35, (+)-(1RS,2RS,5SR)-2-(4-{[3-(2-Oxo-1,3-oxazolidin-3-yl)benzyl]oxy}benzoyl)-5-{[4-oxo-6-(trifluoromethyl)-1,2,3-benzotriazin-3(4H)-yl]methyl}cyclopentanecarboxylic acid], the figures for the IC50 against MMP-2 and against MMP-9 were 450 nM and 1400 nM, respectively.

For `COc1cccc(COc2ccc(C(=O)[C@H]3CC[C@@H](Cn4nnc5ccc(C)cc5c4=O)[C@@H]3C(=O)O)cc2)c1` (racemic) [Example 106, (+/−)-(1RS,2RS,5SR)-2-{4-[(3-Methoxybenzyl)oxy]benzoyl}-5-[(6-methyl-4-oxo-1,2,3-benzotriazin-3(4H)-yl)methyl]cyclopentanecarboxylic acid], the IC50 on MMP-2 stood at 270 nM; against MMP-9, 76 nM.

For the compound `Cc1cccc(COc2ccc(C(=O)[C@@H]3CC[C@H](Cn4nnc5ccc(C(F)(F)F)cc5c4=O)[C@H]3C(=O)O)cc2)c1` (single isomer, unassigned) [Example 16, (+)-(1RS,2RS,5SR)-2-{4-[(3-Methylbenzyl)oxy]benzoyl}-5-{[4-oxo-6-(trifluoromethyl)-1,2,3-benzotriazin-3(4H)-yl]methyl}cyclopentanecarboxylic acid], the figures for the IC50 on MMP-2 and on MMP-9 were 970 nM and 440 nM, respectively.

`CCCCCSc1ccc(C(=O)[C@H]2CC[C@@H](Cn3nnc4ccc(C(F)(F)F)cc4c3=O)[C@@H]2C(=O)O)cc1` (racemic) [Example 88, (+/−)-(1RS,2SR,5RS)-2-{[4-Oxo-6-(trifluoromethyl)-1,2,3-benzotriazin-3(4H)-yl]methyl}-5-[4-(pentylsulphanyl)benzoyl]cyclopentanecarboxylic acid]: the IC50 against MMP-2 worked out at 190 nM; at MMP-9, 55 nM.

Turning to `O=C(O)[C@@H]1[C@@H](Cn2nnc3ccc(C(F)(F)F)cc3c2=O)CC[C@H]1C(=O)c1ccc(OCc2ccc(F)cc2)cc1` (single isomer, unassigned) [Example 13, (+)-(1RS,2RS,5SR)-2-{4-[(4-Fluorobenzyl)oxy]benzoyl}-5-{[4-oxo-6-(trifluoromethyl)-1,2,3-benzotriazin-3(4H)-yl]methyl}cyclopentanecarboxylic acid], the IC50 at MMP-2 was 80 nM; at MMP-9, 4.4 nM.

Take `CCCCCCOc1ccc(C(=O)[C@@H]2CC[C@H](Cn3nnc4ccc(C(F)(F)F)cc4c3=O)[C@H]2C(=O)O)cc1` (single isomer, unassigned) [Example 58, (+)-(1RS,2RS,5SR)-2-[4-(Hexyloxy)benzoyl]-5-{[4-oxo-6-(trifluoromethyl)-1,2,3-benzotriazin-3(4H)-yl]methyl}cyclopentanecarboxylic acid]: the values for the IC50 against MMP-2 and against MMP-9 were 580 nM and 83 nM, respectively.

In the case of `O=C(O)[C@@H]1[C@@H](Cn2nnc3ccc(C(F)(F)F)cc3c2=O)CC[C@H]1C(=O)c1ccc(OCc2cccc(C(F)(F)F)c2)cc1` (single isomer, unassigned) [Example 19, (+)-(1RS,2SR,5RS)-2-{[4-Oxo-6-(trifluoromethyl)-1,2,3-benzotriazin-3(4H)-yl]methyl}-5-(4-{[3-(trifluoromethyl)benzyl]oxy}benzoyl)cyclopentanecarboxylic acid], the half-inhibitory concentration (IC50) is 3800 nM on MMP-2 and 1000 nM against MMP-9.

As for `O=C(O)[C@@H]1[C@@H](Cn2nnc3ccc(C(F)(F)F)cc3c2=O)CC[C@H]1C(=O)c1ccc(OCC2CCCC2)cc1` (single isomer, unassigned) [Example 44, (+)-(1RS,2RS,5SR)-2-[4-(Cyclopentylmethoxy)benzoyl]-5-{[4-oxo-6-(trifluoromethyl)-1,2,3-benzotriazin-3(4H)-yl]methyl}cyclopentanecarboxylic acid], the IC50 on MMP-2 is 270 nM; at MMP-9, 52 nM.

For the compound `O=C(O)[C@H]1[C@H](Cn2nnc3ccc(C(F)(F)F)cc3c2=O)CC[C@@H]1C(=O)c1ccc(OCc2ccc(F)cc2)cc1` (racemic) [Example 12, (+/−)-(1RS,2RS,5SR)-2-{4-[(4-Fluorobenzyl)oxy]benzoyl}-5-{[4-oxo-6-(trifluoromethyl)-1,2,3-benzotriazin-3(4H)-yl]methyl}cyclopentanecarboxylic acid], the values for the IC50 at MMP-2 and against MMP-9 were 42 nM and 5.9 nM, respectively.

Turning to `O=C(O)[C@@H]1[C@@H](Cn2nnc3ccc(C(F)(F)F)cc3c2=O)CC[C@H]1C(=O)c1ccc(OCCC2CCCC2)cc1` (single isomer, unassigned) [Example 55, (+)-(1RS,2RS,5SR)-2-[4-(2-Cyclopentylethoxy)benzoyl]-5-{[4-oxo-6-(trifluoromethyl)-1,2,3-benzotriazin-3(4H)-yl]methyl}cyclopentanecarboxylic acid], the IC50 was determined as 1300 nM at MMP-2 and 940 nM at MMP-9.

For the compound `Cc1cccc(COc2ccc(C(=O)[C@H]3CC[C@@H](Cn4nnc5ccc(C(F)(F)F)cc5c4=O)[C@@H]3C(=O)O)cc2)c1` (racemic) [Example 15, (+/−)-(1RS,2RS,5SR)-2-{4-[(3-Methylbenzyl)oxy]benzoyl}-5-{[4-oxo-6-(trifluoromethyl)-1,2,3-benzotriazin-3(4H)-yl]methyl}cyclopentanecarboxylic acid], the IC50 amounted to 480 nM against MMP-2 and 230 nM at MMP-9.

Turning to “(+)-(1RS,2RS,5SR)-2-{4-[Cyclohexyl)methyl)sulphanyl]benzoyl}-5-{[4-oxo-6-(trifluoromethyl)-1,2,3-benzotriazin-3(4H)-yl]methyl}cyclopentanecarboxylic acid [Example 86]”, the IC50 against MMP-2 was found to be 4800 nM; on MMP-9 it was 1500 nM.

`COc1cccc(COc2ccc(C(=O)[C@@H]3CC[C@H](Cn4nnc5ccc(C)cc5c4=O)[C@H]3C(=O)O)cc2)c1` (single isomer, unassigned) [Example 107, (+)-(1RS,2RS,5SR)-2-{4-[(3-Methoxybenzyl)oxy]benzoyl}-5-[(6-methyl-4-oxo-1,2,3-benzotriazin-3(4H)-yl)methyl]cyclopentanecarboxylic acid]: the IC50 at MMP-2 is 300 nM; against MMP-9 it was 89 nM.

As for `CCCCOc1ccc(C(=O)[C@@H]2CC[C@H](Cn3nnc4ccc(C(F)(F)F)cc4c3=O)[C@H]2C(=O)O)cc1` (single isomer, unassigned) [Example 67, (+)-(1RS,2RS,5SR)-2-(4-Butoxybenzoyl)-5-{[4-oxo-6-(trifluoromethyl)-1,2,3-benzotriazin-3(4H)-yl]methyl}cyclopentanecarboxylic acid], the IC50 on MMP-2 was found to be 270 nM; against MMP-9, 61 nM.

`O=C(O)[C@@H]1[C@@H](Cn2nnc3ccc(C(F)(F)F)cc3c2=O)CC[C@H]1C(=O)c1ccc(OCc2ccc(Cl)cc2)cc1` (single isomer, unassigned) [Example 25, (+)-(1RS,2RS,5SR)-2-{4-[(4-Chlorobenzyl)oxy]benzoyl}-5-{[4-oxo-6-(trifluoromethyl)-1,2,3-benzotriazin-3(4H)-yl]methyl}cyclopentanecarboxylic acid]: the IC50 against MMP-2 was 79 nM; against MMP-9 it was 3 nM.

In the case of `O=C(O)[C@H]1[C@H](Cn2nnc3ccc(C(F)(F)F)cc3c2=O)CC[C@@H]1C(=O)c1ccc(OCc2cccc(C(F)(F)F)c2)cc1` (racemic) [Example 18, (+/−)-(1RS,2SR,5RS)-2-{[4-Oxo-6-(trifluoromethyl)-1,2,3-benzotriazin-3(4H)-yl]methyl}-5-(4-{[3-(trifluoromethyl)benzyl]oxy}benzoyl)cyclopentanecarboxylic acid], the results for the IC50 on MMP-2 and against MMP-9 were 2000 nM and 940 nM, respectively.

Usually IC50 stands for the concentration at which inhibition is half-maximal. The low end stands for greater potency, the high end for weaker potency.

These data come from US20170022171A1, “2,5-DISUBSTITUTED CYCLOPENTANECARBOXYLIC ACIDS AND THEIR USE” (Bayer Pharma Aktiengesellschaft, priority 2014, published 2017).
